Series [1] deals with Wistar fatty rats. Nature of the series: Plasma glucose-lowering effect and insulinotropic effect in rat (oral glucose tolerance test). Type of series: in vivo. Conditions: female Wistar fatty rats, 3 mg/kg orally 60 min before glucose load (1 g/kg), blood at 30 min after glucose load.
Experimental: Plasma Glucose-lowering Effect and Insulinotropic Effect in Rat
Female Wistar fatty rats (17-week-old, 6 per group) were fasted overnight and blood was drawn from the tail vein. The plasma glucose level before administration of the test compound was measured. Then the test compound (3 mg/kg body weight/5 mL) suspended in 0.5% methyl cellulose was orally administered to the rats using a gastric tube. Oral glucose tolerance test (1 g/kg body weight/5 mL) was started 60 min later. Blood was drawn at 30 min after starting glucose load, and plasma glucose level and insulin level of the serum were measured.
Series [2] has as its target T1, dipeptidyl peptidase IV in rat plasma (Rattus norvegicus, UniProt P14740).
T1 construct: Plasma (20 μl) prepared from blood of SD rat by a conventional method; from tissue; host or cells: plasma of SD rat
Nature of the series: Determination of dipeptidyl peptidase IV inhibitory activity in rat plasma. Type of series: biochemical. The conditions noted are these: SD rat plasma, substrate Gly-Pro-p-NA, 30° C., absorbance 405 nm after 0 h and 1 h.
Experimental: Determination of Dipeptidyl Peptidase IV Inhibitory Activity in Rat Plasma
An N,N-dimethylformamide solution (1 μl) containing the test compound was added to a mixture of water (69 μl), 1M Tris-hydrochloride buffer (10 μl, pH 7.5) and 1 mM aqueous Gly-Pro-p-NA solution (100 μl) to prepare a mixed solution. Plasma (20 μl) prepared from blood of SD rat by a conventional method was added the above-mentioned, mixed solution and the enzyme reaction was started at 30° C. The absorbance after 0 h and 1 h was measured using a microplate reader at a wavelength of 405 nm and an increase (ΔODs) was determined. At the same time, an increase (ΔODc) in absorbance of the reaction mixture without the test compound, and an increase (ΔODb) in absorbance of the reaction mixture without the test compound and the enzyme were determined and percent inhibition of dipeptidyl peptidase IV enzyme activity was calculated from the following formula: {1-[(ΔODs−ΔODb)/(ΔODc−ΔODb)]}×100

Series [3] addresses T2, Caco-2-derived dipeptidyl peptidase IV (Homo sapiens, UniProt P27487).
T2 construct: A dipeptidyl peptidase IV crude enzyme solution was prepared from culture cell of Caco-2 (ATCC HTB-37); endogenous in cells; host or cells: Caco-2 (ATCC HTB-37)
Briefly: Determination of Caco-2-derived dipeptidyl peptidase IV inhibitory activity. Conditions: Caco-2 crude enzyme solution, substrate Gly-Pro-p-NA, 37° C., absorbance 405 nm after 0 h and 3 h. Type of series: biochemical.
Experimental: 1) Preparation of Dipeptidyl Peptidase IV Crude Enzyme Solution
A dipeptidyl peptidase IV crude enzyme solution was prepared from culture cell of Caco-2 (ATCC HTB-37). The Caco-2 cells were cultured in D-MEM medium (manufactured by Nissui Pharmaceutical Co., Ltd.) containing 10% FBS (fetal calf serum (manufactured by GIBCO)). The cell extract was prepared by soaking the cells collected by removing the medium in 20 mM phosphate buffer. (pH 7.5) containing 0.5% Triton X-100, extracting for 30 min in an ice bath and separating the supernatant obtained by centrifugation 1500 g for 30 min. The cell extract (22 ml) was applied to a column of Sephadex G-200 (600 ml, manufactured by Pharmacia Corporation) equilibrated with 20 mM Tris-hydrochloride buffer (pH 7.5) and eluted with the same buffer. The elution was fractionated by 10 ml, examined for enzyme activity and 190 ml–280 ml fractions (90 ml) were collected. […]
An N,N-dimethylformamide solution (5 μl) containing the test compound was added to a mixture of water (25 μl), 1M Tris-hydrochloride buffer (10 μl, pH 7.5) and 1 mM aqueous glycylprolyl-p-nitroanilide (Gly-Pro-p-NA; manufactured by Backem AG) solution (50 μl) to prepare a mixed solution. […] The absorbance after 0 h and 3 h was measured using a microplate reader (Multiskan Bichromatic; manufactured by Labsystems) at a wavelength of 405 nm and an increase (ΔODs) was determined. […]

Structures can show the parent of a compound that is named as a salt.

Results on 43 compounds are retold here after US7034039B2, “Fused heterocyclic compounds” (Takeda Pharmaceutical Company Limited, priority 2001, dated 2006).

T1 sequence (P14740 38-767 limits assumed): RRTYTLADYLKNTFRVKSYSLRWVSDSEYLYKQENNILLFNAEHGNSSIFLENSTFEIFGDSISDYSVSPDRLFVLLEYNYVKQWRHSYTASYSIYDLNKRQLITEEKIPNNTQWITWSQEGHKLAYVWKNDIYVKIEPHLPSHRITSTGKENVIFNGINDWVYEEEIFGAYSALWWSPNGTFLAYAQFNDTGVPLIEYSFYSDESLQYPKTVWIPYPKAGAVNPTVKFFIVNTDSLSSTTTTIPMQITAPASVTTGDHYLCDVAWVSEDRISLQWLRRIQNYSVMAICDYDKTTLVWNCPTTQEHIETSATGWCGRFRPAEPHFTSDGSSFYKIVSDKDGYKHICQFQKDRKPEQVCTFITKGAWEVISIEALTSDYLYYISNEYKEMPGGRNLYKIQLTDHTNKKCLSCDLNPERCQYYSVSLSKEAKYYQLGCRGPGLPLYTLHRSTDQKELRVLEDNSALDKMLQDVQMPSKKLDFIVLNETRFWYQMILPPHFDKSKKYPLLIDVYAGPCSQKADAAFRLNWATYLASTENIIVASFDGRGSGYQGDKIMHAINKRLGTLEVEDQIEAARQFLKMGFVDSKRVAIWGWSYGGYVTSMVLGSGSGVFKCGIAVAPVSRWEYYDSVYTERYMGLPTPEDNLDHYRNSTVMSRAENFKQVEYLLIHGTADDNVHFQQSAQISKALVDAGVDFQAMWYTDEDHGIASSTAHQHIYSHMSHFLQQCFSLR
T2 sequence (P27487 whole entry): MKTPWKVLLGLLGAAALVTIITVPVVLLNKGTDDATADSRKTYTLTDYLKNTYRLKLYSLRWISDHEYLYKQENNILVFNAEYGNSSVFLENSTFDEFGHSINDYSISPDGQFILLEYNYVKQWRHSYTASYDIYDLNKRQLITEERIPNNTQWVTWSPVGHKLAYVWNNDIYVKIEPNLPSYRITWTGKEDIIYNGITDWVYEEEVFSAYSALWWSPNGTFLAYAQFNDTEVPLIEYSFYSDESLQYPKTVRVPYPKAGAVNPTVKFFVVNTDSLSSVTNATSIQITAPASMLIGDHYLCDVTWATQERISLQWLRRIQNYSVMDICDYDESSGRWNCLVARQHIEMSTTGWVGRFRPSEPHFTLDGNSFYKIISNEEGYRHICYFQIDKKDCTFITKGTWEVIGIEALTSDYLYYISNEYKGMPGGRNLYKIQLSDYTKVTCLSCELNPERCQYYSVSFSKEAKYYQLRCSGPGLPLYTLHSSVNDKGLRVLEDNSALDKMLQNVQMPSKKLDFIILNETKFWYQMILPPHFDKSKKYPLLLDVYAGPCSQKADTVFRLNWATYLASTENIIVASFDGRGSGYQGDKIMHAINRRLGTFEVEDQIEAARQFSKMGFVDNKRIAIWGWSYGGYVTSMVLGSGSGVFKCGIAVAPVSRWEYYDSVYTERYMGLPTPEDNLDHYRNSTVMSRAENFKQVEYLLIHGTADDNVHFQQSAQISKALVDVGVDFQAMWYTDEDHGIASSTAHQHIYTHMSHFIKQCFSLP

`CC(C)Cn1c(CN)c(-c2ccccc2)c2cc(C(N)=O)ccc2c1=O` [Example 109, 3-Aminomethyl-2-isobutyl-4-phenyl-1(2H)-isoquinolinone-6-carboxamide hydrochloride [3-(aminomethyl)-2-isobutyl-1-oxo-4-phenyl-1,2-dihydro-6-isoquinolinecarboxamide hydrochloride]]: in series [1], the Plasma glucose level is listed as 73 % of control and the insulin level is 205 % of control.
With `CC(C)(C)Cn1c(CN)c(-c2ccccc2)c2cc(Cl)ccc2c1=O` [Example 122, 3-(Aminomethyl)-6-chloro-2-neopentyl-4-phenyl-1(2H)-isoquinolinone], the melting point was in the range of 173 to 174 °C.
The same measure, in the same setting: next, `CC(=O)c1ccc2c(=O)n(CC(C)C)c(CN)c(-c3ccccc3)c2c1.Cl`: 179 °C (dec.); `CCCCOc1c(CN)n(CC2CC2)c(=O)c2ccc(/C=C/C(N)=O)cc12.Cl`: 188 to 190 °C; `CCCCOc1c(CN)n(CC(C)C)c(=O)c2ccc(-c3cnco3)cc12.Cl`: 211 to 213 °C.
Compound `CCCCOc1c(CN)n(CC2CC2)c(=O)c2ccc(OCC(N)=O)cc12.Cl` (hydrate or solvate) returned a melting point of 133 to 134 °C.
The same measure, in the same setting: next, `Cc1ccc(-c2c(CN)n(CC(C)C)c(=O)c3ccccc23)cc1.Cl`: 178 to 180 °C (dec.).
The same measure, in the same setting: next, `CC(C)Cn1c(CN)c(-c2ccccc2)c2cc(CC#N)ccc2c1=O.Cl`: 142 to 144 °C.
On the same count and under the same terms, next, `Cc1csc(-c2ccc3c(=O)n(CC(C)C)c(CN)c(-c4ccccc4)c3c2)n1` (hydrate or solvate) [Example 194, 3-(Aminomethyl)-2-isobutyl-6-(4-methyl-1,3-thiazol-2-yl)-4-phenyl-1(2H)-isoquinolinone]: 162 to 163 °C.
As for `CCCCOc1c(CN)n(CC(C)C)c(=O)c2ccc(NC(=O)C(C)C)cc12.Cl`, the melting point fell in the range of 181 to 183 °C.
Same read-out and setting: then `Cc1ccc(-c2c(CN)n(CC(C)C)c(=O)c3ccc(OCC(N)=O)cc23)cc1.Cl` (hydrate or solvate), with 278 to 280 °C; and `CCCCOc1c(CN)n(CC(C)C)c(=O)c2ccc(C(N)=S)cc12.Cl`, with 200 to 202 °C.
Consider `CCCCOc1c(CN)n(CC(C)(C)C)c(=O)c2ccc(OCC(N)=O)cc12` [Example 95, 2-{{3-(Aminomethyl)-4-butoxy-2-neopentyl-1-oxo-1,2-dihydro-6-isoquinolinyl}oxy}acetamide hydrochloride], for which the results for the IC50 in series [2] and in series [3] were 180 nM and 280 nM, respectively. In addition, the Plasma glucose level in series [1] is on record as 82 % of control. In addition, the insulin level in series [1] is listed as 188 % of control.
On to `CC(C)Cn1c(CN)c(-c2ccccc2)c2cc(-c3nsc(=O)[nH]3)ccc2c1=O.Cl`, for which the melting point was 232 to 237 °C.
For the compound `CC(C)Cn1c(CN)c(-c2ccccc2)c2cc([S+](C)[O-])ccc2c1=O` (centres unmarked) [Example 172, 3-(Aminomethyl)-2-isobutyl-6-(methylsulfinyl)-4-phenyl-1(2H)-isoquinolinone], the melting point was 167 °C (dec.).
The same measure, in the same setting: then `CC(C)Cn1c(CN)c(OCCCC(F)(F)F)c2cc(OCC(N)=O)ccc2c1=O.Cl` (hydrate or solvate), with 147 to 148 °C; and `CC(C)Cn1c(CN)c(-c2ccc(F)cc2)c2cc(OCC(N)=O)ccc2c1=O.Cl`, with 189 to 190 °C.
`CC(C)Cn1c(CN)c(-c2cccc(F)c2)c2cc(OCC(N)=O)ccc2c1=O.Cl` yielded a melting point of 209 to 210 °C.
For `CC(C)Cn1c(CN)c(-c2ccccc2)c2cc(/C=C/C(N)=O)ccc2c1=O` [Example 160, (E)-3-[3-(Aminomethyl)-2-isobutyl-1-oxo-4-phenyl-1,2-dihydro-6-isoquinolinyl]-2-propenamide], the melting point was 228 to 230 °C.
On the same count and under the same terms, next, `CCCCOc1c(CN)n(CC(C)(C)C)c(=O)c2ccc(/C=C/C(N)=O)cc12.Cl` (hydrate or solvate): 187 to 188 °C; `CCCCOc1c(CN)n(CC(C)(C)C)c(=O)c2ccc(CC(N)=O)cc12.Cl`: 163 to 165 °C.
`CC(C)Cn1c(CN)c(-c2ccccc2)c2cc(-c3nn[nH]n3)ccc2c1=O.Cl`: the melting point lay within 218 to 220 °C.
`CC(C)Cn1c(CN)c(-c2ccccc2)c2cc(Cl)ccc2c1=O` [Example 118, 3-(Aminomethyl)-6-chloro-2-isobutyl-4-phenyl-1(2H)-isoquinolinone] showed a melting point of 123 to 124 °C.
`CCCCOc1c(CN)n(CC(C)C)c(=O)c2ccc(C#N)cc12.Cl` returned a melting point of 135 to 136 °C.
`CC(C)Cn1c(CN)c(-c2ccccc2)c2cc(SCC(N)=O)ccc2c1=O` [Example 171, 2-{[3-(Aminomethyl)-2-isobutyl-1-oxo-4-phenyl-1,2-dihydro-6-isoquinolinyl]sulfanyl}acetamide] returned a melting point of 218 to 220 °C.
Still for that read-out and setting: then `CC(C)Cn1c(CN)c(-c2ccccc2)c2cc(S(C)(=O)=O)ccc2c1=O.Cl`, with 209 °C (dec.).
The same measure, in the same setting: then `Cc1ccc(-c2c(CN)n(CC(C)C)c(=O)c3ccc(O)cc23)cc1.Cl`, with 255 to 256 °C; and `CC(C)Cn1c(CN)c(-c2ccccc2)c2cc(-c3noc(=O)[nH]3)ccc2c1=O.Cl`, with 253 °C (dec.); and `CCCCOc1c(CN)n(CC2CC2)c(=O)c2ccc(C(N)=O)cc12.Cl` (hydrate or solvate), with 164 to 165 °C.
Still for that read-out and setting: next, `CC(C)Cn1c(CN)c(-c2ccc(Cl)cc2)c2ccccc2c1=O` [Example 124, 3-(Aminomethyl)-4-(4-chlorophenyl)-2-isobutyl-1(2H)-isoquinolinone]: 119 to 120 °C.
As for `CC(=O)Nc1ccc2c(=O)n(CC(C)C)c(CN)c(-c3ccccc3)c2c1.Cl` [Example 112, 6-Acetylamino-3-aminomethyl-2-isobutyl-4-phenyl-1(2H)-isoquinolinone hydrochloride], the IC50 in series [2] came out at 320 nM. Moreover, in series [1], the Plasma glucose level was 76 % of control and the insulin level is on record as 255 % of control. The same compound showed an IC50 in series [3] of 250 nM.
Consider `CC(C)Cn1c(CN)c(-c2ccccc2)c2cc(/C=C/C(N)=O)ccc2c1=O.Cl` (hydrate or solvate), for which the melting point was 223 to 225 °C.
On the same count and under the same terms, next, `CCCCOc1c(CN)n(CC2CC2)c(=O)c2ccc(-c3cnco3)cc12.Cl`: 124 to 126 °C; `CC(C)Cn1c(CN)c(-c2ccccc2)c2ccccc2c1=O` [Example 123, 3-(Aminomethyl)-2-isobutyl-4-phenyl-1(2H)-isoquinolinone]: 129 to 130 °C.
With `CSc1ccc2c(=O)n(CC(C)C)c(CN)c(-c3ccccc3)c2c1.Cl`, the melting point lay in the range of 252 to 255 °C.
`CCn1c(CN)c(-c2ccccc2)c2cc(Cl)ccc2c1=O` [Example 113, 3-(Aminomethyl)-6-chloro-2-ethyl-4-phenyl-1(2H)-isoquinolinone] registered a melting point of 126 to 127 °C.
On the same count and under the same terms, next, `CC(C)Cn1c(CN)c(-c2ccc(Cl)cc2)c2cc(O)ccc2c1=O.Cl`: 247 to 249 °C.
The compound `CCCCOc1c(CN)n(CC(C)(C)C)c(=O)c2ccc(OCC(N)=O)cc12` (as salt: hydrochloride) [Example 95, 2-{{3-(Aminomethyl)-4-butoxy-2-neopentyl-1-oxo-1,2-dihydro-6-isoquinolinyl}oxy}acetamide hydrochloride] had a melting point of 233 to 235 °C.
The same measure, in the same setting: next, `CC(C)Cn1c(CN)c(-c2ccccc2)c2cc(Br)ccc2c1=O` [Example 106, 3-Aminomethyl-6-bromo-2-isobutyl-4-phenyl-1(2H)-isoquinolinone]: 129 to 130 °C; `CC1=NN(c2ccc3c(=O)n(CC(C)C)c(CN)c(-c4ccccc4)c3c2)CO1` [Example 166, 3-(Aminomethyl)-2-isobutyl-6-(5-methyl-1,3,4-oxadiazol-3-yl)-4-phenyl-1(2H)-isoquinolinone]: 179 to 181 °C.
Still for that read-out and setting: next, `CCCCOc1c(CN)n(CC(C)C)c(=O)c2ccc(OCC(N)=O)cc12.Cl` (hydrate or solvate): 248 to 250 °C; `CCCCOc1c(CN)n(CC(C)C)c(=O)c2ccc(/C=C/C(N)=O)cc12.Cl`: 223 to 225 °C; `CC(C)Cn1c(CN)c(-c2ccc(F)cc2)c2cc(/C=C/C(=O)O)ccc2c1=O.Cl`: 255 to 256 °C.
